ChEMBL document CHEMBL1201862, “PubChem BioAssay data set” (2004)
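Five compound concentrations were applied to cells in 96-well plates for 48 hours; endpoints were derived by simple linear interpolation of the resulting dose-response curve. At the GI50, growth is halved.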 Activity calls are given as the source filed them. Cut-off read from the data, not from the text of the source: active = GI50 up to about 1.1 µM and inactive = higher.

Columns and labels:
Experiment in all cases: NCI tumour cell line growth inhibition, 48 h
MCF7 = system: MCF7
SNB-78 = system: SNB-78
HOP-18 = system: HOP-18
T47D = system: T47D
PC-3 = system: PC-3
BT-549 = system: BT-549
DU-145 = system: DU-145
K562 = system: K562
SNB-19 = system: SNB-19
KM12 = system: KM12
DLD-1 = system: DLD-1
SN12C = system: SN12C
HOP-62 = system: HOP-62
SK-MEL-2 = system: SK-MEL-2
Hs-578T = system: Hs-578T
SR = system: SR
IGROV-1 = system: IGROV-1
SK-MEL-28 = system: SK-MEL-28
MDA-MB-231 = system: MDA-MB-231
XF498 = system: XF498

| Structure (SMILES) | GI50 (MCF7) | GI50 (SNB-78) | GI50 (HOP-18) | GI50 (T47D) | GI50 (PC-3) | GI50 (BT-549) | GI50 (DU-145) | GI50 (K562) | GI50 (SNB-19) | GI50 (KM12) | GI50 (DLD-1) | GI50 (SN12C) | GI50 (HOP-62) | GI50 (SK-MEL-2) | GI50 (Hs-578T) | GI50 (SR) | GI50 (IGROV-1) | GI50 (SK-MEL-28) | GI50 (MDA-MB-231) | GI50 (XF498) |
| --- | --- | --- | --- | --- | --- | --- | --- | --- | --- | --- | --- | --- | --- | --- | --- | --- | --- | --- | --- | --- |
| COc1ccc2[nH]c3c4c(ccc3c2c1)C(=O)C=CC4=O | 10.8 µM (inactive) | 16.3 µM (inactive) | 10.8 µM (inactive) | 2.64 µM (inactive) | 18.7 µM (inactive) | 27.8 µM (inactive) | 34.8 µM (inactive) | 1.53 µM (inactive) | 40.5 µM (inactive) | 21.6 µM (inactive) | 2.54 µM (inactive) | 11 µM (inactive) | 51.2 µM (inactive) | 13.8 µM (inactive) | 24.3 µM (inactive) | 0.333 µM (active) | 16 µM (inactive) | 8.2 µM (inactive) | 17.4 µM (inactive) |  |
| CCC/C(=N\NC(=O)c1cc2ccccc2cc1O)C(CC)C(=O)CCC(=O)N(Cc1ccccc1)Cc1ccccc1 (centres undefined) |  | > 100 µM (inactive) | 11 µM (inactive) |  |  |  |  | 26.2 µM (inactive) | 27.7 µM (inactive) | 96.6 µM (inactive) | 58.1 µM (inactive) | 63.2 µM (inactive) | 81.1 µM (inactive) | 28.6 µM (inactive) |  | 31 µM (inactive) | 34.5 µM (inactive) | > 100 µM (inactive) |  |  |
| CC(=O)NC1=C(NC(C)(C)C)C(=O)c2ccccc2C1=O |  | 31 µM (inactive) | 14.8 µM (inactive) |  |  |  |  | 7.19 µM (inactive) | 43.2 µM (inactive) | 30.3 µM (inactive) | 15.9 µM (inactive) | 18.2 µM (inactive) | 49.4 µM (inactive) | 20.6 µM (inactive) |  |  | 30.2 µM (inactive) | 25.4 µM (inactive) |  | 11.1 µM (inactive) |
| CCO/N=[N+](\[O-])N(CC)CC |  | > 100 µM (inactive) |  |  |  |  |  | > 100 µM (inactive) | > 100 µM (inactive) | > 100 µM (inactive) |  | > 100 µM (inactive) | > 100 µM (inactive) | > 100 µM (inactive) |  | > 100 µM (inactive) | > 100 µM (inactive) | > 100 µM (inactive) |  | > 100 µM (inactive) |
| O=C1C(c2ccccc2)=[N+]([O-])c2cc([N+](=O)[O-])ccc21 |  |  | 88.1 µM (inactive) |  |  |  |  | 22.8 µM (inactive) | 57 µM (inactive) | 20.5 µM (inactive) | 21.6 µM (inactive) | 25.6 µM (inactive) | > 100 µM (inactive) | > 100 µM (inactive) |  |  | 22.4 µM (inactive) | 22.6 µM (inactive) |  | 24 µM (inactive) |
| COC(=O)/C(=N/NC(C)(C)C)C(C(=O)OC)C(=O)C(=O)Nc1nc2ccc([N+](=O)[O-])cc2s1 (centres undefined) |  | > 100 µM (inactive) |  |  |  |  |  | > 100 µM (inactive) | > 100 µM (inactive) | > 100 µM (inactive) |  | > 100 µM (inactive) | > 100 µM (inactive) | > 100 µM (inactive) |  | > 100 µM (inactive) | > 100 µM (inactive) | > 100 µM (inactive) |  | > 100 µM (inactive) |
| Nc1nc(SCCC/C=C/B(O)O)nc2c1ncn2C1OC(CO)C(O)C1O (centres undefined) |  | > 243 µM (inactive) |  |  |  |  |  | > 243 µM (inactive) | > 243 µM (inactive) | > 243 µM (inactive) | > 243 µM (inactive) | > 243 µM (inactive) | > 243 µM (inactive) | > 243 µM (inactive) |  | > 243 µM (inactive) | > 243 µM (inactive) | > 243 µM (inactive) |  | > 243 µM (inactive) |
| O=S1(=O)OCCOS(=O)(=O)C1Cl |  | > 100 µM (inactive) | > 100 µM (inactive) |  |  |  |  | > 100 µM (inactive) | > 100 µM (inactive) | > 100 µM (inactive) | > 100 µM (inactive) | > 100 µM (inactive) | > 100 µM (inactive) | > 100 µM (inactive) |  | > 100 µM (inactive) | > 100 µM (inactive) | > 100 µM (inactive) |  |  |
| COc1ccc(/C(=N/O)C(c2ccc(OC)cc2)C2C(=O)Oc3ccccc32)cc1 (centres undefined) |  | > 100 µM (inactive) | > 100 µM (inactive) |  |  |  |  | 71.4 µM (inactive) |  | 83.4 µM (inactive) | 83.4 µM (inactive) | 84.7 µM (inactive) |  | 38.5 µM (inactive) |  | > 100 µM (inactive) | 40 µM (inactive) | 78.2 µM (inactive) |  |  |
| COc1cc2ccc1-c1cc(ccc1O)CC1c3cc4c(cc3CCN1C)Oc1c(OC)cc3c(c1O4)C(C2)N(C)CC3 (centres undefined) |  | 2.1 µM (inactive) |  |  |  |  |  | 1.44 µM (inactive) | 1.98 µM (inactive) | 1.73 µM (inactive) | 2.28 µM (inactive) | 2.08 µM (inactive) | 1.93 µM (inactive) | 1.79 µM (inactive) |  | 1.85 µM (inactive) | 2.17 µM (inactive) | 1.52 µM (inactive) |  | 1.92 µM (inactive) |
| CC(=O)/C=C\C(=O)NNS(=O)(=O)c1ccc(C)cc1 |  | > 100 µM (inactive) |  |  |  |  |  | > 100 µM (inactive) | > 100 µM (inactive) | > 100 µM (inactive) | > 100 µM (inactive) | > 100 µM (inactive) | > 100 µM (inactive) | > 100 µM (inactive) |  | > 100 µM (inactive) | > 100 µM (inactive) | > 100 µM (inactive) |  | > 100 µM (inactive) |
| N#CC(c1nc2ccccc2nc1Cl)S(=O)(=O)c1ccccc1 (centres undefined) |  | 25.8 µM (inactive) |  |  |  |  |  | 34.3 µM (inactive) | > 100 µM (inactive) | > 100 µM (inactive) | > 100 µM (inactive) | 39.8 µM (inactive) | > 100 µM (inactive) | 97.1 µM (inactive) |  | > 100 µM (inactive) |  | > 100 µM (inactive) |  | 37.6 µM (inactive) |
| CN(C)CC1(C)CC/C(=C\c2ccc(Cl)cc2)C1=O (centres undefined) |  | 40.8 µM (inactive) | 46 µM (inactive) |  |  |  |  | 40.6 µM (inactive) | 20.3 µM (inactive) | 31.8 µM (inactive) | 29.2 µM (inactive) | 51.3 µM (inactive) | > 100 µM (inactive) | > 100 µM (inactive) |  |  | 74 µM (inactive) | > 100 µM (inactive) |  | 78.9 µM (inactive) |
| CCCN(CCCCC(NC(C)=O)C(=O)NCc1ccccc1)C(=O)NC (centres undefined) |  | > 100 µM (inactive) |  |  |  |  |  | > 100 µM (inactive) | > 100 µM (inactive) | > 100 µM (inactive) | > 100 µM (inactive) | > 100 µM (inactive) | > 100 µM (inactive) | > 100 µM (inactive) |  |  | > 100 µM (inactive) | > 100 µM (inactive) |  | > 100 µM (inactive) |
| BrC/C=C/C[P+](c1ccccc1)(c1ccccc1)c1ccccc1 |  | 21 µM (inactive) | 67 µM (inactive) |  |  |  |  | 2.43 µM (inactive) | 21.3 µM (inactive) | 4.29 µM (inactive) |  | 19.5 µM (inactive) | 19.6 µM (inactive) | 10.8 µM (inactive) |  |  | 55.5 µM (inactive) | 33.3 µM (inactive) |  | 11.1 µM (inactive) |
| Cc1c(N)nc(C(CC(N)=O)NCC(N)C(N)=O)nc1C(=O)NC(C(=O)NC(C)C(O)C(C)C(=O)NC(C(=O)NCCc1nc(-c2nc(C(=O)NCCCNCCCCN)cs2)cs1)C(C)O)C(OC1OC(CO)C(O)C(O)C1OC1OC(CO)C(O)C(OC(N)=O)C1O)c1c[nH]cn1 (centres undefined) |  | > 10 µM (inactive) | > 10 µM (inactive) |  |  |  |  | > 10 µM (inactive) | > 10 µM (inactive) | > 10 µM (inactive) | > 10 µM (inactive) | 3.56 µM (inactive) | 0.321 µM (active) | > 10 µM (inactive) |  |  | > 10 µM (inactive) | > 10 µM (inactive) |  | 0.0413 µM (active) |
| CCCC/C(C)=N/NC(N)=S |  | > 100 µM (inactive) | > 100 µM (inactive) |  |  |  |  | > 100 µM (inactive) | > 100 µM (inactive) | > 100 µM (inactive) | > 100 µM (inactive) | > 100 µM (inactive) | > 100 µM (inactive) | > 100 µM (inactive) |  | > 100 µM (inactive) | > 100 µM (inactive) | > 100 µM (inactive) |  |  |
| O=C1OC(=O)C2C3C=CC(C12)C1C2C=CC2C31 (centres undefined) |  |  | > 100 µM (inactive) |  |  |  |  | > 100 µM (inactive) | > 100 µM (inactive) | > 100 µM (inactive) |  | > 100 µM (inactive) | > 100 µM (inactive) | > 100 µM (inactive) |  | > 100 µM (inactive) | > 100 µM (inactive) | > 100 µM (inactive) |  | 42.4 µM (inactive) |
| O=c1[nH]cnc2[nH]nnc12 |  | 6.3 µM (inactive) | 2.33 µM (inactive) |  |  |  |  | 0.593 µM (active) | 88.5 µM (inactive) | 32.7 µM (inactive) |  | 1.93 µM (inactive) | 1.99 µM (inactive) | 0.386 µM (active) |  | 0.92 µM (active) | 16 µM (inactive) | 4.46 µM (inactive) |  | 7.5 µM (inactive) |
| COC(=O)CC(C(C(=O)OCc1ccccc1)C(C)O)N1C(=O)OCC1c1ccccc1 (centres undefined) |  |  |  |  |  |  |  | 34.4 µM (inactive) | 75.2 µM (inactive) |  | 60.4 µM (inactive) | > 100 µM (inactive) | > 100 µM (inactive) | > 100 µM (inactive) |  | 38.1 µM (inactive) | 69.3 µM (inactive) | > 100 µM (inactive) |  | 24.1 µM (inactive) |
| CCc1ccccc1NC(=O)c1cccc([N+](=O)[O-])c1O |  | 37.8 µM (inactive) | 66.5 µM (inactive) |  |  |  |  | 40.4 µM (inactive) | 41.7 µM (inactive) | 18.1 µM (inactive) | 26.7 µM (inactive) | 31 µM (inactive) | 19 µM (inactive) |  |  |  | 23 µM (inactive) | 28.2 µM (inactive) |  | 20.4 µM (inactive) |
| CN(C)Cc1cc(/C(=C(\C#N)c2ccccc2)c2ccc(O)cc2)ccc1O |  | 32.1 µM (inactive) | 19.9 µM (inactive) |  |  |  |  | 20 µM (inactive) | 28.8 µM (inactive) | 19.9 µM (inactive) | 20.8 µM (inactive) | 18.3 µM (inactive) | 14.4 µM (inactive) | 17.3 µM (inactive) |  | 12.9 µM (inactive) | 30.5 µM (inactive) | 13.6 µM (inactive) |  |  |
